Test results as given in PMC4289617 (Journal of medicinal chemistry, 2010).
Each block holds one compound with its values, some of them ahead of it. Peptide text beside a SMILES is read from it.

Molecular target: WDR5 (Homo sapiens, UniProt P61964)
Assay: FP-based competitive binding assay
Settings: for times increase in binding affinity upon N-terminal acetylation: acetylated vs free amino group peptide; for binding to WDR5: up to the concentrations tested; for times less potent than Ac-3mer: compared to Ac-3mer (Ac-ARA-NH2)

Compound: CC(=O)N[C@@H](C)C(=O)N[C@@H](CCCNC(=N)N)C(=O)N[C@H](C(=O)N[C@@H](CCCCN)C(=O)N[C@@H](CCC(N)=O)C(=O)N[C@H](C(=O)N[C@@H](C)C(=O)N[C@@H](CCCNC(=N)N)C(=O)N[C@@H](CCCCN)C(=O)N[C@@H](CO)C(N)=O)[C@@H](C)O)[C@@H](C)O [Ac-H3-10mer]
times increase in binding affinity upon N-terminal acetylation: > 10000

Compound: CC(=O)N[C@@H](C)C(=O)N[C@@H](CCCNC(=N)N)C(=O)N[C@@H](C)C(=O)N[C@@H](CCC(=O)O)C(=O)N[C@H](C(=O)N[C@@H](Cc1c[nH]cn1)C(=O)N[C@@H](CC(C)C)C(=O)N[C@@H](CCCNC(=N)N)C(=O)N[C@@H](CCCCN)C(=O)N[C@@H](CO)C(N)=O)C(C)C [Ac-10mer]
times more potent than the WIN peptide (Ki ratio vs WIN peptide): 50

Compound: Ac-ARTKQTA-NH2 [Ac-H3-7mer, Ac-ARTKQTA]
times increase in binding affinity upon N-terminal acetylation: > 10000

Compound: Ac-ARAEVHL-NH2 (N-terminus and C-terminus assumed) [Ac-7mer]
fold decrease in binding affinity vs Ac-10mer (compared to Ac-10mer): 10

Next, values leading:

binding to WDR5: does not bind to WDR5
Compound: C[C@H](N)C(=O)N[C@@H](CCCNC(=N)N)C(=O)N[C@@H](C)C(N)=O [H2N-3mer, H2N-ARA-NH2] (H-Ala-Arg-Ala-NH2)

times less potent than Ac-3mer: 10
Compound: COC(=O)[C@H](C)NC(=O)[C@H](CCCNC(=N)N)NC(=O)[C@H](C)NC(C)=O [Δ2c, Ac-ARA-COOCH3] (Ac-Ala-Arg-Ala-OMe)

times increase in binding affinity upon N-terminal acetylation: 1500 | times more potent than Ac-ARA-NH2 (compared to Ac-ARA-NH2): 6
Compound: CC(=O)N[C@@H](C)C(=O)N[C@@H](CCCNC(=N)N)C(=O)N[C@H](C(N)=O)[C@@H](C)O [Ac-H3-3mer, Ac-ART-NH2] (Ac-Ala-Arg-Thr-NH2)

times less potent than Ac-3mer: 50
Compound: CC(=O)N[C@@H](C)C(=O)N[C@@H](CCCNC(=N)N)C(=O)N[C@@H](C)C(=O)N(C)C [Δ2b, Ac-ARA-CONMe2] (Ac-Ala-Arg-Ala-NMe2)

binding to WDR5: complete loss of its binding to WDR5
Compound: CC(=O)N[C@@H](C)C(=O)N[C@@H](CCCNC(=N)N)C(=O)N(C)[C@@H](C)C(N)=O [Δ1, Ac-AR-(N-Me)A-NH2]
